Assays:
[1] = test system: A549 cells; test: CCK-8 assay for cell proliferation and cytotoxicity, A549; format: cell-based; conditions: Homo sapiens, CCK-8, 48 h
Protocol: A549 cells were cultured in a humidified incubator at 37 °C with 5% CO2 in Ham’s F-12 K (PM150910, Procell) supplemented with 10% FBS and 1% Penicillin Streptomycin.
(§1) Three types of lung cells were seeded into 96-well plate at a density of 5 × 10^3 cells per well at logarithmic growth phase and cultured in 37 °C. […] After that, cell viability was determined according to the instruction of the CCK-8 assay. Next, 10 μL of CCK-8 solution was added to each well of the plate and incubate the plate for 1–4 h in the incubator. The absorbance was measured at 450 nm using a microplate reader (Bio-Tek). The percentage of viable cells was measured using the following formula where three independent experiments were performed: [(A450 sample − A450blank)/(A450 control − A450blank)] × 100%.

[2] = test system: NCI-H1299 cells; test: CCK-8 assay for cell proliferation and cytotoxicity, NCI-H1299; format: cell-based; conditions: Homo sapiens, CCK-8, 48 h
Protocol: as §1

[3] = test system: NCI-H1437 cells; test: CCK-8 assay for cell proliferation and cytotoxicity, NCI-H1437; format: cell-based; conditions: Homo sapiens, CCK-8, 48 h, read-out: IC50 1437
Protocol: as §1

[4] = test system: Bcl-2, caspase9, Cleaved-Caspase3, Cleaved-PARP, MMP9 in H1299 cells; test: Western blot of apoptosis- and migration-related proteins; format: cell-based, human; conditions: H1299, 4, 8 or 16 μM, 48 h
Description: We conducted an in-depth investigation into the mechanism of apoptosis induced by compounds 7a and 7j. The Bcl-2 protein family is located upstream of the apoptosis signaling pathway. Bcl-2 proteins play an anti-apoptotic role by inhibiting the release of cytochrome C (cyt-c) from mitochondria. Previous literature reports that many anticancer drugs induce apoptosis by downregulating Bcl-2 expression. During apoptosis, the expression of Bcl-2 is inhibited, cyt-c is released, and it binds with the apoptotic protease activation factor to form the apoptosome. This triggers a cascade reaction of Caspase family proteins, with apoptosome promoting the activation of Caspase9. Activated Caspase9 then activates Caspase3, forming the Caspase3 cleavage body, which further activates downstream PARP protein, ultimately promoting cell apoptosis. […] After treating H1299 cells with different concentrations of compounds for 48 h, cell proteins were extracted, and western blot was used to detect the expression changes of apoptosis-related proteins.
Firstly, H1299 cells were treated with different concentrations concentrations of 7a and 7j at 4, 8 and 16 μmol/L for 48 h, cells were harvested using RIPA lysate (R0010, Solarbio) and centrifuged at 12,000 rpm for 15 min at 4 °C, and then the concentration of total protein was measured and taken from the supernatant. Protein was separated by 12% SDS–polyacrylamide gel electrophoresis and transferred to nitrocellulose filter membrane. after blocking in 5% milk for 2 h, the membranes were incubated with specific primary antibody at 4 °C overnight. Next day, NC membranes were incubated for 1 h at room temperature with appropriate secondary antibodies, and then Protein bands was visualizing by chemiluminescence detection (ECL kit, Genview).

[5] = test system: H1299 cells; test: Wound healing assay; format: cell-based, human; conditions: 24 h
Protocol: H1299 cells were seeded in a 6-well plate, When the cell confluency reached 95%, a wound line was scratched using a 200 µl pipette tip, and then washed three times, fresh medium containing 7a or 7j (2, 4 and 8 μmol/L) was added, and the plate was incubated at 37 °C with 5% CO2. All the images were captured at 0 h and 24 h under an inverted microscope, and the quantification of scratches was analysed using Image J.

[6] = test system: H1299 cells; test: DAPI staining for cell apoptosis; format: cell-based, human; conditions: H1299, 2, 4 and 8 μmol/L, 48 h
Protocol: In order to further verify the apoptotic activity induced by 7a and 7j in lung cancer cells, H1299 cells were treated with different concentrations of compounds 7a and 7j for 48 h, followed by DAPI staining. […] As the drug concentration increased, nuclear staining intensified, and even nuclear condensation and fragmentation phenomena were observed.
H1299 (1.5 × 10^4 ~ 2 × 10^4 /well) cells were seeded in 24-well plates for 24 h, and then treated with 7a or 7j at the concentrations of 2,4 and 8 μmol/L for 48 h., the cells were fixed for 30 min at room temperature in 4% paraformaldehyde and washed 3 times in PBS. Finally, every well was stained with DAPI (10 µg/mL, C0065, Solarbio) at room temperature for 30 min, and washed at least three times in PBS. The fluorescence microscope was used to observe the morphological changes of cell nuclei.

[7] = test system: H1299 cells; test: Flow cytometry detection of apoptosis (Annexin V-EGFP/PI); format: cell-based, human; conditions: 48 h
Protocol: H1299 cells were treated with different concentrations of 7a and 7j for 48 h. The cells were stained with Annexin-V and PI, and the proportion of apoptotic cells was detected using flow cytometry.
H1299 cells were seeded in a 6-well plate at a density of 1 × 10^5 cells/well and incubated for 24 h. On the following day, the medium was replaced with fresh medium containing 7a or 7j (2, 4 and 8 μmol/L) and cells were incubated for an additional 48 h. Cell apoptosis was detected using Annexin V-EGFP/PI apoptosis detection Kit by flow cytometry. Subsequently, 5 µl of […] Annexin V and 10 µl of PI was added to the cell suspension, gently vortexed, and incubated at room temperature in the dark for 20 min, then single-cell suspension was prepared followed by flow cytometry (BD Accuri™ C6 Plus).

[8] = test system: H1299 cells; test: Colony formation assay; format: cell-based, human; conditions: 7 days
Description: The colony formation assay is an important method for evaluating the ability of adherent cells to proliferate and form colonies on a plate, and it is widely used to assess cell proliferation. We also employed the colony formation assay to further confirm that compounds 7a and 7j can inhibit the proliferation of lung cancer cells, as shown in Fig. 5. After treating lung cancer cells with low, medium, and high concentrations (1, 2, 4 μmol/L) of compounds for 7 days, the number of cell colonies was counted to analyze the proliferation inhibition rate.
H1299 cells were seeded in six-well plates at a density of 500 cells per well and treated with 7a or 7j (1, 2 and 4 μmol/L) for 7 days. Then, cells were per-fixed with 4% paraformaldehyde for 30 min, stained with 0.1% Crystal violet for 15 min, and then washed with pure water. Taking a picture after the plates were air-dry. The clone formations number was counted with Image J.

[9] = test system: H1299 cells; test: Transwell migration assay; format: cell-based, human; conditions: H1299, 2, 4 and 8 μmol/L, 24 h, vs normal control, p < 0.01
Protocol: Transwell chamber migration assay is another important method to assess cell migration ability. Tumor cells are seeded in the chamber, and the number of tumor cells that pass through the membrane is counted to evaluate the migration ability of tumor cells.
Transwell assay was used to determine the migration ability of H1299 cells. Cells were starved in serum-free RPMI 1640 medium for 24 h, then detached and resuspended in serum-free RPMI 1640 medium. 5 × 10^5 cells/mL were inoculated into the upper chamber of a 24-well Transwell plate (Corning Inc., United States), with a volume of 100 µl per well. Then, 100 µL serum-free medium containing 7a or 7j (2, 4 and 8 μmol/L) was added to the upper chamber and the lower chamber was filled with 700 µL medium containing 20% FBS. After incubation for 24 h, H1299 cells on the upper membrane of the transwell were wiped off. The migrated cells were treated with 4% paraformaldehyde for 20 min, stained with 0.1% crystal violet for 20 min and washed three times with PBS. The number of H1299 cells that migrated to the underside of the membrane was counted under the inverted fluorescence microscope. Three randomly selected areas from each transwell were photographed and calculated using Image J.

[10] = test system: L02 cells; test: Cytotoxicity / survival rate in normal hepatocytes L02; format: cell-based; conditions: for Survival rate %, 48 h: L02 cells

SMILES: COc1cc2ncnc(Nc3cccc(-c4cn(Cc5ccc([N+](=O)[O-])cc5)nn4)c3)c2cc1OCCCN1CCOCC1 [Compound 7f]
- IC50 [1]: 16.4 ± 1.07 µM
- IC50 [2]: 5.65 ± 0.16 µM
- IC50 [3]: 3.95 ± 0.45 µM

SMILES: COc1cc2ncnc(Nc3cccc(-c4cn(Cc5cc(C)cc(C)c5)nn4)c3)c2cc1OCCCN1CCOCC1 [Compound 7m]
- IC50 [1]: 6.54 ± 0.21 µM
- IC50 [2]: 4.48 ± 0.41 µM
- IC50 [3]: 3.72 ± 0.17 µM

SMILES: COc1cc2ncnc(Nc3cccc(-c4cn(Cc5cccc(Cl)c5)nn4)c3)c2cc1OCCCN1CCOCC1 [Compound 7j]
- Bcl-2 protein expression level [4]: decrease
- Cleaved-Caspase3 protein expression level [4]: increased
- Cleaved-PARP protein expression level [4]: increased
- MMP9 protein expression [4]: downregulated
- caspase9 protein expression level [4]: decrease
- IC50 [1]: 3.86 ± 0.38 µM
- migration closure rate ([5]; H1299, 2 μmol/L): 72.57 ± 3.43%
- migration closure rate ([5]; H1299, 4 μmol/L): 60.91 ± 8.48%
- migration closure rate ([5]; H1299, 8 μmol/L): 48.88 ± 3.23%
- apoptotic morphology by DAPI staining [6]: exhibited typical apoptotic features
- total apoptotic cell proportion ([7]; H1299, 2 μmol/L): 14.97 ± 1.54%
- total apoptotic cell proportion ([7]; H1299, 4 μmol/L): 27.07 ± 2.77%
- total apoptotic cell proportion ([7]; H1299, 8 μmol/L): 65.77 ± 2.93%
- IC50 [2]: 3.84 ± 0.22 µM
- formation of H1299 cell colonies ([8]; 1 μmol/L): markedly inhibit
- colony formation ([8]; H1299, 4 μmol/L): almost completely suppressed
- number of cells passing through the membrane to the lower surface of the chamber [9]: significantly decreased
- IC50 [3]: 1.69 ± 0.25 µM
- IC50 ([10]; Homo sapiens, normal hepatocytes L02): 17.7 ± 0.52 µM
- Survival rate %, 48 h ([10]; 2 μM): 94.49 ± 4.11%
- Survival rate %, 48 h ([10]; 4 μM): 89.12 ± 5.50%
- Survival rate %, 48 h ([10]; 8 μM): 75.59 ± 2.65%
- Survival rate %, 48 h ([10]; 16 μM): 59.14 ± 1.54%
- Survival rate %, 48 h ([10]; 32 μM): 24.48 ± 3.68%

SMILES: COc1cc2ncnc(Nc3cccc(-c4cn(Cc5ccccc5C)nn4)c3)c2cc1OCCCN1CCOCC1 [Compound 7l]
- IC50 [1]: 6.59 ± 0.2 µM
- IC50 [2]: 4.92 ± 0.49 µM
- IC50 [3]: 0.84 ± 0.1 µM

SMILES: COc1cc2ncnc(Nc3cccc(-c4cn(Cc5ccccc5F)nn4)c3)c2cc1OCCCN1CCOCC1 [Compound 7g, N-(3-(1-(2-fluorobenzyl)-1H-1,2,3-triazol-4-yl)phenyl)-7-methoxy-6-(3-morpholinopropoxy)quinazolin-4-amine]
- IC50 [1]: 6.23 ± 0.12 µM
- IC50 [2]: 5.97 ± 0.36 µM
- IC50 [3]: 1.66 ± 0.18 µM

SMILES: COc1cccc(-n2cc(-c3cccc(Nc4ncnc5cc(OC)c(OCCCN6CCOCC6)cc45)c3)nn2)c1 [Compound 7r]
- IC50 [1]: 12.9 ± 0.25 µM
- IC50 [2]: 9.35 ± 0.31 µM
- IC50 [3]: 6.21 ± 0.23 µM

SMILES: COc1cc2ncnc(Nc3cccc(-c4cn(Cc5ccc(C(F)(F)F)cc5)nn4)c3)c2cc1OCCCN1CCOCC1 [Compound 7h]
- IC50 [1]: 7.13 ± 1.21 µM
- IC50 [2]: 4.89 ± 0.16 µM
- IC50 [3]: 5.21 ± 0.3 µM

SMILES: COc1cc2ncnc(Nc3cccc(-c4cn(Cc5cc(F)ccc5C#N)nn4)c3)c2cc1OCCCN1CCOCC1 [Compound 7n]
- IC50 [1]: 3.78 ± 0.03 µM
- IC50 [2]: 6.02 ± 0.24 µM
- IC50 [3]: 4.67 ± 0.28 µM

SMILES: COc1cc2ncnc(Nc3cccc(-c4cn(-c5ccc([N+](=O)[O-])cc5OC)nn4)c3)c2cc1OCCCN1CCOCC1 [Compound 7t]
- IC50 [1]: 13.5 ± 0.33 µM
- IC50 [2]: 13 ± 0.23 µM
- IC50 [3]: 14.93 ± 0.14 µM

SMILES: COc1cc2ncnc(Nc3cccc(-c4cn(-c5ccccc5F)nn4)c3)c2cc1OCCCN1CCOCC1 [Compound 7q]
- IC50 [1]: 9.03 ± 0.15 µM
- IC50 [2]: 7.68 ± 0.11 µM
- IC50 [3]: 7.21 ± 0.1 µM

— PMC11035632, “Discovery of gefitinib-1,2,3-triazole derivatives against lung cancer via inducing apoptosis and inhibiting the colony formation” (Scientific Reports, 2024)
